PMC10746543, “Design principles for cyclin K molecular glue degraders” (Nature Chemical Biology, 2023)
Several values for one entry are separate records, joined by “and”; a condition that tells them apart may be missing. Equal entries are not always repeated.

Columns and labels:
[1] = test system: HEK293T cells; test: Drug sensitivity assay (CellTiter-Glo viability) with or without MLN4924 pretreatment; assay type: cell-based, human; details: for CTG: MLN4924 yes, HEK293T, single well
Summary of the method: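 First, cells (HEK293T–Cas9, 0.15 × 10^6 ml^−1) are exposed to DMSO or 100 nM MLN4924. Next, drugs follow at 2 h. Finally, CellTiter-Glo is read at day 3 and normalised to DMSO.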

[2] = biological target: T1, CDK2–cyclin A (Homo sapiens, UniProt P24941); test: Lanthascreen kinase binding assay, CDK2
T1 construct: purchased Thermo Fisher
Procedure: Lanthascreen experiments were performed using commercially available reagents (Thermo Fisher) and according to the manufacturer’s instructions.

[3] = test system: cyclin K; test: Label-free quantitative mass spectrometry in MDA-MB-231 cells, cyclin K; assay type: cell-based, human
Procedure: (§1) MDA-MB-231 cells were treated with DMSO or a cyclin K degrader compound at 1 µM for 5 h. Cells were collected by centrifugation and washed with phosphate-buffered saline before snap freezing in liquid nitrogen. Cells were lysed by addition of lysis buffer (8 M urea, 50 mM NaCl, 50 mM 4-(2-hydroxyethyl)-1-piperazineethanesulfonic acid (EPPS) pH 8.5, and protease and phosphatase inhibitors) and homogenization by bead beating (BioSpec) for three repeats of 30 s at 2,400 rpm. Bradford assay was used to determine the final protein concentration in the clarified cell lysate. Then 50 µg of protein for each sample was reduced, alkylated and precipitated using methanol/chloroform as previously described, and the resulting washed precipitated protein was allowed to air dry. Precipitated protein was resuspended in 4 M urea, 50 mM HEPES pH 7.4, followed by dilution to 1 M urea with the addition of 200 mM EPPS, pH 8. Proteins were first digested with LysC (1:50; enzyme:protein) for 12 h at room temperature. The LysC digestion was diluted to 0.5 M urea with 200 mM EPPS pH 8 followed by digestion with trypsin (1:50; enzyme:protein) for 6 h at 37 °C. Sample digests were acidified with formic acid to a pH of 2–3 before desalting using C18 solid phase extraction plates (SOLA, Thermo Fisher Scientific). Desalted peptides were dried in a vacuum-centrifuged and reconstituted in 0.1% formic acid for liquid chromatography–mass spectrometry analysis.
(§2) Data were collected using a TimsTOF Pro2 (Bruker Daltonics) coupled to a nanoElute LC pump (Bruker Daltonics) via a CaptiveSpray nano-electrospray source. Peptides were separated on a reversed-phase C18 column (25 cm × 75 µm inner diameter, […], IonOpticks) containing an integrated captive spray emitter. Peptides were separated using a 50 min gradient of 2–30% buffer B (acetonitrile in 0.1% formic acid) with a flow rate of 250 nl min^−1 and column temperature maintained at 50 °C.
(§3) Data-dependent acquisition (DDA) was performed in Parallel Accumulation-Serial Fragmentation (PASEF) mode to determine effective ion mobility windows for downstream diaPASEF data collection. The ddaPASEF parameters included: 100% duty cycle using accumulation and ramp times of 50 ms each, one Trapped Ion Mobility Spectrometry(TIMS)-MS scan and ten PASEF ramps per acquisition cycle. The TIMS-MS survey scan was acquired between 100 m/z and 1,700 m/z and 1/K0 of 0.7–1.3 V s cm^−2. Precursors with one to five charges were selected, and those that reached an intensity threshold of 20,000 arbitrary units were actively excluded for 0.4 min. The quadrupole isolation width was set to 2 m/z for m/z < 700 and 3 m/z for m/z > 800, with the m/z between 700 m/z and 800 m/z being interpolated linearly. […] To perform diaPASEF, the precursor distribution in the DDA m/z-ion mobility plane was used to design an acquisition scheme for data-independent acquisition (DIA) data collection that included two windows in each 50 ms diaPASEF scan. Data were acquired using 16 of these 25 Da precursor double window scans (creating 32 windows) that covered the diagonal scan line for doubly and triply charged precursors, with singly charged precursors able to be excluded by their position in the m/z-ion mobility plane. These precursor isolation windows were defined between 400 m/z and 1,200 m/z and 1/K0 of 0.7–1.3 V s cm^−2.
(§4) DirectDIA mode includes first extracting the DIA data into a collection of MS2 spectra which are searched using Spectronaut’s Pulsar search engine. The search results are then used to generate a spectral library which is then employed for the targeted analysis of the DIA data. MS/MS spectra were searched against a Swissprot human database (January 2021). Database search criteria largely followed the default settings for directDIA including: tryptic with two missed cleavages, fixed carbomidomethylation of cysteine, and variable oxidation of methionine and acetylation of protein N-termini and precursor Q-value (FDR) cut-off of 0.01. […]

[4] = biological target: T2, CDK13 (Homo sapiens, UniProt Q14004+Q16531); test: Label-free quantitative mass spectrometry in MDA-MB-231 cells, CDK13; assay type: cell-based
T2 construct: endogenous in cells; host or cells: MDA-MB-231
T2 sequence (Q14004 whole entry): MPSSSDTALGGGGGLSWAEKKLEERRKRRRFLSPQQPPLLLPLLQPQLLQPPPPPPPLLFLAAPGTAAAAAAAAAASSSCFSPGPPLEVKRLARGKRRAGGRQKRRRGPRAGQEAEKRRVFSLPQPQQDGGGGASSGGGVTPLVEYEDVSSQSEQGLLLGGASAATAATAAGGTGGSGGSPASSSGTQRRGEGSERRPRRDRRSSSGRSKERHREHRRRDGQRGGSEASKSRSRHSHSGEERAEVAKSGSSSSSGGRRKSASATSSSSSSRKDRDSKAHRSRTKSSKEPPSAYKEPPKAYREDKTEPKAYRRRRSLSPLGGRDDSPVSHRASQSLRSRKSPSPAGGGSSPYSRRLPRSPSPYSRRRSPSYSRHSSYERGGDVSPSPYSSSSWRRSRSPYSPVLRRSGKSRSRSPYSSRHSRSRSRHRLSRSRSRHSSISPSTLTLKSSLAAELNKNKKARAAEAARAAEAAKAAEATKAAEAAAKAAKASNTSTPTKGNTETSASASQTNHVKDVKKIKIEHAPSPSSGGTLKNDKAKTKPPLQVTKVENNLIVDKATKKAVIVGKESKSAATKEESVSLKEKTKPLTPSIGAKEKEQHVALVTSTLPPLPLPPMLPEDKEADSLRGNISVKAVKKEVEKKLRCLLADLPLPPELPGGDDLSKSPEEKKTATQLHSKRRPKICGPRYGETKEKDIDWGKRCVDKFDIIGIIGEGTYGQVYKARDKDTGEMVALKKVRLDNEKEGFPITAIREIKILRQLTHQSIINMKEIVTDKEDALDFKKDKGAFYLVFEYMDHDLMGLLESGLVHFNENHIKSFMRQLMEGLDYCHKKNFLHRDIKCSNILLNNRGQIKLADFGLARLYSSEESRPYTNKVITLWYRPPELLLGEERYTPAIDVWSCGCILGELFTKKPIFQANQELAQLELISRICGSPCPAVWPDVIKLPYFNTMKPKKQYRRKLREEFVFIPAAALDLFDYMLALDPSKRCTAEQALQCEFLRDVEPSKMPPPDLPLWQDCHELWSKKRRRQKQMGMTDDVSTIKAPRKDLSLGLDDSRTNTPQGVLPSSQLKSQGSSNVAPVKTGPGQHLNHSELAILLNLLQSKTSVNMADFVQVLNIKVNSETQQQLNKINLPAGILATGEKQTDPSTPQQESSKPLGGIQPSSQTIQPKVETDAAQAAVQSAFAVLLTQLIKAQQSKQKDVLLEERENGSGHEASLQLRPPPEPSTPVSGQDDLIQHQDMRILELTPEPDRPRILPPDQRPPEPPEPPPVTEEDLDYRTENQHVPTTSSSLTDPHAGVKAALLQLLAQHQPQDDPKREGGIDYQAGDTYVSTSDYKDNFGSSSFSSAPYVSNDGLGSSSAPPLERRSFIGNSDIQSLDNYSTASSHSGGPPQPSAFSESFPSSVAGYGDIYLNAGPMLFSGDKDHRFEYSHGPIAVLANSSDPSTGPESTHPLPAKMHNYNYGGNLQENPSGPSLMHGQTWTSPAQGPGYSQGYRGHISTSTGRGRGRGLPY
T2 sequence (O75909 whole entry partner): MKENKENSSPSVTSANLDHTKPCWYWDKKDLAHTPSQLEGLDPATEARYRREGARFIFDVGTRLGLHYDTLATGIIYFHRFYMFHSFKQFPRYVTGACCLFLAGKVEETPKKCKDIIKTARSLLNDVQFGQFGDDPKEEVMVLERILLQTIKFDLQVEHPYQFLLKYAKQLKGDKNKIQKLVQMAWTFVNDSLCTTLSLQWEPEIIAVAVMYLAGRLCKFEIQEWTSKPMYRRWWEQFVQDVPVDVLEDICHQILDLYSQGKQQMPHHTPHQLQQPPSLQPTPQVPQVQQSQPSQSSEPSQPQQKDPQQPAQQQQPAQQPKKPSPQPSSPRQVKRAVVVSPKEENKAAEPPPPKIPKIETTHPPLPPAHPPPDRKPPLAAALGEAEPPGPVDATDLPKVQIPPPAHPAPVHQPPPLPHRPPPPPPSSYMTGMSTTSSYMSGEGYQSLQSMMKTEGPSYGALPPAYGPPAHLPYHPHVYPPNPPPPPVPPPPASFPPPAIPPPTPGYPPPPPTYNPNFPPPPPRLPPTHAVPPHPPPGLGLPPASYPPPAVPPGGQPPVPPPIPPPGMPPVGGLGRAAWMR
T2 sequence (Q16531 2-1140 limits assumed): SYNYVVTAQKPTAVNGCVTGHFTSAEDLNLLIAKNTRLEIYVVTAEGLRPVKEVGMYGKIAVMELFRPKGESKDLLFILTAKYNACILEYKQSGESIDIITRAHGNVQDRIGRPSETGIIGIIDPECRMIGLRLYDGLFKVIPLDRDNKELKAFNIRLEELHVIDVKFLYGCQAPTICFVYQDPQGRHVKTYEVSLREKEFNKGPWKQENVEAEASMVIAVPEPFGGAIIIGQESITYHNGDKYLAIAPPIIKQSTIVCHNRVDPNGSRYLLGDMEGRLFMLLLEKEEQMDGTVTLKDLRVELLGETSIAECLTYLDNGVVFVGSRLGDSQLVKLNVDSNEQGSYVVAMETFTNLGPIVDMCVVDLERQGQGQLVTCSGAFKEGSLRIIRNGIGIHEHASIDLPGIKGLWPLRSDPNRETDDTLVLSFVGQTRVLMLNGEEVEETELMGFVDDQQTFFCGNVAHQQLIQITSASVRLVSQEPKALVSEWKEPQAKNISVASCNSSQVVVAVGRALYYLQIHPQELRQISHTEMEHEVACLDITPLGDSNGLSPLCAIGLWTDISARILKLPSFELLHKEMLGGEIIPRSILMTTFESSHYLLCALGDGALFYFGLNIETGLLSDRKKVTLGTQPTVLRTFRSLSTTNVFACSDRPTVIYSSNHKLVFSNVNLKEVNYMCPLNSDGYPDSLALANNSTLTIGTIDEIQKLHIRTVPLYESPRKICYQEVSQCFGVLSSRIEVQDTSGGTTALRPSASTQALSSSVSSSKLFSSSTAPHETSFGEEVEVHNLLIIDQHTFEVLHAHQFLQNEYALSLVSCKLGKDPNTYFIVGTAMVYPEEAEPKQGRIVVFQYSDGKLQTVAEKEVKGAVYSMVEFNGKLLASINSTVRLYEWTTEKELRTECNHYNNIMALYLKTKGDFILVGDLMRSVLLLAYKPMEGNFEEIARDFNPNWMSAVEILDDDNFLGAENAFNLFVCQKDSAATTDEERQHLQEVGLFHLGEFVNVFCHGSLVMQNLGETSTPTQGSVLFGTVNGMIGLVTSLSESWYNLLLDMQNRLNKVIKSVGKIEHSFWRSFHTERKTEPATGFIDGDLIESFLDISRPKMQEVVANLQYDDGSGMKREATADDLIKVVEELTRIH
Procedure: as §1, §2, §3, §4

[5] = label-free quantitative MS, replicate values
[6] = normalised to DMSO = 1, replicate values

Structure (SMILES): CC(C)c1nn(-c2c(Cl)cccc2Cl)c2nc(Cc3ccc(OCCO)cc3)[nH]c(=O)c12 [compound 21195]
- viability assay signal (normalized) ([1]; 5 nM, + MLN4924): 0.9981 and 0.9962
- viability assay signal (normalized) ([1]; 5 nM, without MLN4924): 1.164 and 1.103
- viability assay signal (normalized) ([1]; 10.7 nM, + MLN4924): 1.03 and 0.9545
- viability assay signal (normalized) ([1]; 10.7 nM, without MLN4924): 1.004 and 0.916
- viability assay signal (normalized) ([1]; 22.9 nM, + MLN4924): 1.044 and 1.059
- viability assay signal (normalized) ([1]; 22.9 nM, without MLN4924): 0.9744 and 0.9831
- viability assay signal (normalized) ([1]; 48.9 nM, + MLN4924): 0.9201 and 0.8826
- viability assay signal (normalized) ([1]; 48.9 nM, without MLN4924): 0.5003 and 0.5087
- viability assay signal (normalized) ([1]; 105 nM, + MLN4924): 0.7478 and 0.7261
- viability assay signal (normalized) ([1]; 105 nM, without MLN4924): 0.2946 and 0.2725
- viability assay signal (normalized) ([1]; 224 nM, + MLN4924): 0.3645 and 0.3756
- viability assay signal (normalized) ([1]; 224 nM, without MLN4924): 0.297 and 0.2837
- viability assay signal (normalized) ([1]; 478 nM, + MLN4924): 0.2678 and 0.2737
- viability assay signal (normalized) ([1]; 478 nM, without MLN4924): 0.2806 and 0.2662
- CTG ([1]; 2190 nM): 32283
- viability assay signal (normalized) ([1]; 2190 nM, + MLN4924): 0.2528 and 0.2544
- viability assay signal (normalized) ([1]; 2190 nM, without MLN4924): 0.2713 and 0.2676
- CTG ([1]; 4680 nM): 28534 and 32644
- viability assay signal (normalized) ([1]; 4680 nM, + MLN4924): 0.2234 and 0.2556
- viability assay signal (normalized) ([1]; 4680 nM, without MLN4924): 0.2632 and 0.2448
- CTG ([1]; 10000 nM): 27157 and 28920
- viability assay signal (normalized) ([1]; 10000 nM, + MLN4924): 0.2126 and 0.2265
- viability assay signal (normalized) ([1]; 10000 nM, without MLN4924): 0.2678 and 0.2469
- EC50 ([1]; Homo sapiens, HEK-293T, Supplementary Table 2, HEK293T viability, 72 h, compound alone, read-out: Cellular assays EC50): 39 nM
- Toxicity rescue ([1]; Supplementary Table 2, MLN4924-mediated cytotoxicity rescue, 10 µM used where n.d.): 226%
- Lanthascreen signal, sheet CDK2 ([2]; Compound 0.038147 nM, raw replicates, experiment r48-r58): 0.01114 and 0.01116
- Lanthascreen signal, sheet CDK2 ([2]; Compound 0.038147 nM, raw replicates, experiment r72-r82): 0.02274 and 0.02249 and 0.02111
- Lanthascreen signal, sheet CDK2 ([2]; Compound 0.152588 nM, raw replicates, experiment r48-r58): 0.01418 and 0.01279
- Lanthascreen signal, sheet CDK2 ([2]; Compound 0.152588 nM, raw replicates, experiment r72-r82): 0.0215 and 0.0211 and 0.01988
- Lanthascreen signal, sheet CDK2 ([2]; Compound 0.610352 nM, raw replicates, experiment r48-r58): 0.01088 and 0.01046
- Lanthascreen signal, sheet CDK2 ([2]; Compound 0.610352 nM, raw replicates, experiment r72-r82): 0.01525 and 0.01498 and 0.01532
- Lanthascreen signal, sheet CDK2 ([2]; Compound 1.02544 nM, raw replicates, experiment r1-r11): 0.008805 and 0.007055
- Lanthascreen signal, sheet CDK2 ([2]; Compound 3.15521 nM, raw replicates, experiment r1-r11): 0.006794 and 0.006701
- Lanthascreen signal, sheet CDK2 ([2]; Compound 4.57247 nM, experiment r25-r34): 0.009774
- Lanthascreen signal, sheet CDK2 ([2]; Compound 9.46563 nM, raw replicates, experiment r1-r11): 0.005367 and 0.004658
- Lanthascreen signal, sheet CDK2 ([2]; Compound 9.76563 nM, raw replicates, experiment r48-r58): 0.004922 and 0.004545
- Lanthascreen signal, sheet CDK2 ([2]; Compound 9.76563 nM, raw replicates, experiment r72-r82): 0.008551 and 0.007922 and 0.008628
- Lanthascreen signal, sheet CDK2 ([2]; Compound 13.7174 nM, experiment r25-r34): 0.006843
- Lanthascreen signal, sheet CDK2 ([2]; Compound 31.5521 nM, raw replicates, experiment r1-r11): 0.003961 and 0.003619
- Lanthascreen signal, sheet CDK2 ([2]; Compound 39.0625 nM, raw replicates, experiment r48-r58): 0.004317 and 0.004069
- Lanthascreen signal, sheet CDK2 ([2]; Compound 39.0625 nM, raw replicates, experiment r72-r82): 0.008233 and 0.00742 and 0.007049
- Lanthascreen signal, sheet CDK2 ([2]; Compound 41.1523 nM, experiment r25-r34): 0.005858
- Lanthascreen signal, sheet CDK2 ([2]; Compound 99.3891 nM, raw replicates, experiment r1-r11): 0.003218 and 0.002962
- Lanthascreen signal, sheet CDK2 ([2]; Compound 123.457 nM, experiment r25-r34): 0.005407
- Lanthascreen signal, sheet CDK2 ([2]; Compound 156.25 nM, raw replicates, experiment r48-r58): 0.004055 and 0.004446
- Lanthascreen signal, sheet CDK2 ([2]; Compound 156.25 nM, raw replicates, experiment r72-r82): 0.007121 and 0.006977 and 0.007061
- Lanthascreen signal, sheet CDK2 ([2]; Compound 315.521 nM, raw replicates, experiment r1-r11): 0.003513 and 0.004201
- Lanthascreen signal, sheet CDK2 ([2]; Compound 370.37 nM, experiment r25-r34): 0.005303
- Lanthascreen signal, sheet CDK2 ([2]; Compound 625 nM, raw replicates, experiment r48-r58): 0.004058 and 0.004497
- Lanthascreen signal, sheet CDK2 ([2]; Compound 625 nM, raw replicates, experiment r72-r82): 0.007299 and 0.007212 and 0.007465
- Lanthascreen signal, sheet CDK2 ([2]; Compound 2500 nM, raw replicates, experiment r48-r58): 0.004147 and 0.004489
- Lanthascreen signal, sheet CDK2 ([2]; Compound 2500 nM, raw replicates, experiment r72-r82): 0.007107 and 0.006983 and 0.006617
- Lanthascreen signal, sheet CDK2 ([2]; Compound 3155.21 nM, raw replicates, experiment r1-r11): 0.004846 and 0.003852
- Lanthascreen signal, sheet CDK2 ([2]; Compound 3333.33 nM, experiment r25-r34): 0.004706
- Lanthascreen signal, sheet CDK2 ([2]; Compound 10000 nM, experiment r25-r34): 0.005121
- Lanthascreen signal, sheet CDK2 ([2]; Compound 10000 nM, raw replicates, experiment r48-r58): 0.003844 and 0.004325
- Lanthascreen signal, sheet CDK2 ([2]; Compound 10000 nM, raw replicates, experiment r72-r82): 0.007331 and 0.007604 and 0.008348
- Lanthascreen signal, sheet CDK2 ([2]; Compound 10002 nM, raw replicates, experiment r1-r11): 0.002963 and 0.004615
- IC50 ([2]; Supplementary Table 2, read-out: Lanthascreen IC50 [nM] CDK2): 3 nM
- cyclin K depletion, result in words ([3]; MDA-MB-231 cells, 1 µM, 5 h): more effective at depleting cyclin K than CR8
- CCNK peptide count ([3]; individual replicates, sheet EDF7): 55.265 and 55.9786
- CCNK peptide count [3, 5]: 55.265 and 55.9786
- CCNK peptide count (DMSO-normalised) [3, 6]: 0.03019 and 0.03114
- average CCNK peptide count ([3]; sheet EDF7): 55.6218
- CDK13 peptide count [4, 5]: 262.248 and 170.145
- CDK13 peptide count (DMSO-normalised) [4, 6]: 0.3901 and 0.2615
